The values below come from patent US20160286797A1, “Herbicidal Agents Containing Aclonifen” (BAYER CROPSCIENCE AKTIENGESELLSCHAFT, priority 2013, published 2016).

SMILES strings stand for the structures.

Experiment [1] concerns Lolium spp. resistant to HRAC group A. Briefly: Greenhouse experiment, post-emergence treatment of ryegrass biotype resistant to HRAC group A. The format is in vivo. To be noted: post-emergence (PO, BBCH 11), about 3 weeks after application. The procedure:
(§1) In the standard design of the test, seeds of various broad-leaved weed and weed grass biotypes (origins) were sown in a 8-13 cm diameter pot filled with natural soil of a standard field soil (loamy silt; non-sterile) and covered with a covering soil layer of about 1 cm. The pots were then cultivated in a greenhouse (12-16 h light, temperature day 20-22° C., night 15-18° C.) until the time of application. The pots were treated on a laboratory track sprayer with spray liquors comprising the compositions according to the invention, mixtures of the prior art or components used individually. […]
(§2) About 3 weeks after the application, the soil action or/and foliar action was assessed visually according to a scale of 0-100% in comparison to an untreated comparative group: 0%=no noticable effect compared to the untreated comparative group; 100%=full effect compared to the untreated comparative group. […]
(§3) Insofar as herbicidal effects of the compositions according to the invention compared to mixtures of the prior art or compared to components applied individually against economically important mono- and dicotyledonous harmful plants were the center of attention, the synergistic herbicidal activities were calculated using Colby's formula (cf. S. R. Colby; Weeds 15 (1967), 20-22): […]
(§4) Δ=difference (%) of the measured value (%) to the expected value (%) (measured value minus expected value). […]

The test system of experiment [2] is Lolium spp. resistant to HRAC group B. Briefly: Greenhouse experiment, post-emergence treatment of ryegrass biotype resistant to HRAC group B. The experiment is classed as in vivo. Particulars: post-emergence (PO, BBCH 11), about 3 weeks after application. The procedure:
as §1, §2, §3, §4

On to `Nc1c([N+](=O)[O-])ccc(Oc2ccccc2)c1Cl` [(A) aclonifen, 2-chloro-6-nitro-3-phenoxybenzenamine], for which the entries for the “effect (measured value, visual scale 0-100% vs untreated)” value in experiment [1] (225 g of AS/ha) and in experiment [2] (225 g of AS/ha) were 25% and 50%, respectively.
Take `O=C(Nc1ccc(F)cc1F)c1cccnc1Oc1cccc(C(F)(F)F)c1` [(B) diflufenican, N-(2,4-difluorophenyl)-2-[3-(trifluoromethyl)phenoxy]-3-pyridinecarboxamide]: the “effect (measured value, visual scale 0-100% vs untreated)” value in experiment [1] (30 g of AS/ha) is 10%; in experiment [2] (30 g of AS/ha) it was 5%.
